Patent US10858365B2, “Triazolo-pyrimidine compounds and uses thereof” (Dizal (Jiangsu) Pharmaceutical Co., Ltd., priority 2018, dated 2020)
Read-outs that look alike come from different tables or passages of the source.

Assays:
Type in all cases: cell-based
mA2a = mA2a (Mus musculus (Mouse), UniProt Q60613); experiment: cAMP inhibition assay in mA2a/CHO cells; conditions: adenosine stimulation, read-out: cAMP & FLIPR IC50 (nM) mA2a
Experimental: (§1) hA2a/CHO, hA2b/CHO and mA2a/CHO (Genscript) were plated at 5×10^3 cells/well into 384-well polystyrene plates at the day of experiment. Compounds were pre-incubated with cells for 30 min at 37° C., 5% CO2. Then […] adenosine was added to the cells and incubated for 30 min at 37° C., 5% CO2. Detection reagent (CISBIO) was added and the plates were incubated for 60 min at room temperature. The signal was captured by Envision.

hA2b = hA2b (Homo sapiens (Human), UniProt P29275); experiment: cAMP inhibition assay in hA2b/CHO cells; conditions: adenosine stimulation, read-out: cAMP & FLIPR IC50 (nM) hA2b
hA2b, sequence (P29275 whole entry): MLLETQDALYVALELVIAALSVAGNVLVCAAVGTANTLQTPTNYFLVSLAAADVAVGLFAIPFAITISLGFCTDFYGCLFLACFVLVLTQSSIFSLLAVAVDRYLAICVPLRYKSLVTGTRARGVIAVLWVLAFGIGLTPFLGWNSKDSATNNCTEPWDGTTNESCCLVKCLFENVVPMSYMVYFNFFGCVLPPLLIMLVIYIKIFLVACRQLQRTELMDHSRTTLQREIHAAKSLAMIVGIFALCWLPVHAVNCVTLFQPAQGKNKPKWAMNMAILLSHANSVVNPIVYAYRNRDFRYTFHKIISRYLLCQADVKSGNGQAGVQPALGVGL
Experimental: as §1

hA1 = hA1 (Homo sapiens (Human), UniProt P30542); experiment: FLIPR inhibition assay in hADORA1/CHO (hA1 expressing) cells; conditions: FLIPR calcium, adenosine stimulation
hA1, sequence (P30542 whole entry): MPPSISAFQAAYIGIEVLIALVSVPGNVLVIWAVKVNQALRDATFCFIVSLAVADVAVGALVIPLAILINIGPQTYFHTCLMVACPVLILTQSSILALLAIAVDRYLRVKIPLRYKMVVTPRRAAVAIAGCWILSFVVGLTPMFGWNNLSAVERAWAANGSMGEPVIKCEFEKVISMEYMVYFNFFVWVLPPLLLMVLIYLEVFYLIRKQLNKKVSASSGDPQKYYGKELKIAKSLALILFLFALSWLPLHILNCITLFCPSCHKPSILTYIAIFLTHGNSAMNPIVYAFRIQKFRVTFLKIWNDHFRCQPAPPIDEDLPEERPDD
Experimental: hADORA1/CHO (hA1 expressing) cells (Genscript) were plated at 1×10^4 cells/well into 384-well polystyrene plates one day before starting the experiment. On the day of experiment, the supernatant was discard and replaced with 40 µL of dye (FLIPR calcium 5 Assay Kit) per well and the plates were incubated for 60 mins at 37° C. plus 5% CO2. Then testing compounds were added at different concentrations for FLIPR™ inhibition assay. After a 400 s incubation with compound, […] adenosine was added into the cells, and the signal was captured by FLIPR.

hA2a = hA2a (Homo sapiens (Human), UniProt P29274); experiment: cAMP inhibition assay in hA2a/CHO cells; conditions: adenosine stimulation, read-out: cAMP & FLIPR IC50 (nM) hA2a
hA2a, sequence (P29274 whole entry): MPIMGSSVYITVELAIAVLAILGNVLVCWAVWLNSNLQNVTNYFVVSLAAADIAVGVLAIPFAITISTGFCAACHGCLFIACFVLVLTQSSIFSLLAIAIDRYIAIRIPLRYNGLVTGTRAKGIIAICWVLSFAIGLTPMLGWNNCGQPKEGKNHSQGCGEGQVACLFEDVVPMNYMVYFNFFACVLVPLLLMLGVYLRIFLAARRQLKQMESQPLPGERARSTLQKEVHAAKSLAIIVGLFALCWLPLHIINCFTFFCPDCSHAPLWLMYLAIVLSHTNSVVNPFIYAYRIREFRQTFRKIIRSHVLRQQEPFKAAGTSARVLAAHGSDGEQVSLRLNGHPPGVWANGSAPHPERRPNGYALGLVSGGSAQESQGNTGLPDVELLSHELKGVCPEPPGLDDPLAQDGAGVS
Experimental: as §1
FLIPR™ and cAMP inhibition activities of exemplary compounds in different adenosine receptor over-expressing cell lines are shown in Table 4 below.

[1] = hADORA1/CHO cells, read-out: cAMP & FLIPR IC50 (nM) hA1
[2] = cAMP & FLIPR IC50 (nM) hA1, hADORA1/CHO cells

mA2a, sequence (Q60613 whole entry): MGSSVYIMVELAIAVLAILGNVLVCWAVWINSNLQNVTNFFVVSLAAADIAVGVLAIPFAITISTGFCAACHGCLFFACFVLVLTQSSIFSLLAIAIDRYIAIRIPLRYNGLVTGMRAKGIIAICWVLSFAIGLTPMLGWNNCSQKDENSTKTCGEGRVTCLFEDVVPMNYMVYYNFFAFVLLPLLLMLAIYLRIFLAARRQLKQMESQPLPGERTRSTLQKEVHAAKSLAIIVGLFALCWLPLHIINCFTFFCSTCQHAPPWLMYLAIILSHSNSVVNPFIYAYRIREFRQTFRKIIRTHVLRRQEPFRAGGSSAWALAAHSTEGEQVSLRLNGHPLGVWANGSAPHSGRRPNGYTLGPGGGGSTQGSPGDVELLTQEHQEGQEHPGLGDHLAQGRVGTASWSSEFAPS

| SMILES | IC50 (mA2a) [nM] | IC50 (hA2b) [nM] | IC50 (hA1; [1]) [nM] | IC50 (hA2a) [nM] | IC50 (hA1; [2]) [nM] |
| --- | --- | --- | --- | --- | --- |
| Cn1cc(-c2c(-c3ccc(Cl)cc3)nc(N)n3nc(Cc4ncccc4F)nc23)ccc1=O [Example 56, 5-(5-amino-7-(4-chlorophenyl)-2-((3-fluoropyridin-2-yl)methyl)-[1,2,4]triazolo[1,5-c]pyrimidin-8-yl)-l-methylpyridin-2(1H)-one] | 36 | 142 | 34 | 22 |  |
| Cn1cc(-c2c(-c3ccc(C#N)cc3)nc(N)n3nc(Cc4ncccc4F)nc23)ccc1=O [Example 57, 4-(5-amino-2-((3-fluoropyridin-2-yl)methyl)-8-(1-methyl-6-oxo-1,6-dihydropyridin-3-yl)-[1,2,4]triazolo[l,5-c]pyrimidin-7-yl)benzonitrile] | 219 | 399 | 76 | 120 |  |
| Cn1cc(-c2c(-c3ccc(F)cc3)nc(N)n3nc(Cc4cscn4)nc23)ccc1=O [Example 58, 5-[5-amino-7-(4-fluorophenyl)-2-[(1,3-thiazol-4-yl)methyl]-[1,2,4]triazolo[1,5-c]pyrimidin-8-yl]-1-methyl-1,2-dihydropyridin-2-one] | 47 | 2290 | 25 | 29 |  |
| Cn1cc(-c2nc(N)n3nc(Cc4ncccc4F)nc3c2-c2ccc(=O)n(C)c2)cn1 [Example 59, 5-(5-amino-2-((3-fluoropyridin-2-yl)methyl)-7-(1-methyl-1H-pyrazol-4-yl)-[1,2,4]triazolo[1,5-c]pyrirridin-8-yl)-l-methylpyridin-2(1H)-one] | 179 | 1550 | 37 | 98 |  |
| Nc1nc(-c2ccc(F)cc2)c(-c2ccc(=O)n(C3CS(=O)(=O)C3)c2)c2nc(Cc3c(F)cccc3F)nn12 [Example 60, 5-(5-amino-2-(2,6-difluorobenzyl)-7-(4-fluorophenyl)-[1,2,4]triazolo[1,5-c]pyrimidin-8-yl)-1-(1,1-dioxidothietan-3-yl)pyridin-2(1H)-one] | 16 | 3300 | 40 | 56 |  |
| Cn1cc(-c2c(-n3cccn3)nc(N)n3nc(Cc4ncccc4F)nc23)ccc1=O [Example 63, 5-[5-amino-2-[(3-fluoropyridin-2-yl)methyl]-7-(1H-pyrazol-1-yl)-[1,2,4]triazolo[1,5-c]pyrimidin-8-yl]-1-methyl-1,2-dihydropyridin-2-one] | 125 | 1560 | 250 | 122 |  |
| Cn1cc(-c2c(-c3ccc(F)cc3F)nc(N)n3nc(Cc4ncccc4F)nc23)ccc1=O [Example 64, 5-(5-amino-7-(2,4-difluorophenyl)-2-((3-fluoropyridin-2-yl)methyl)-[1,2,4]triazolo[1,5-c]pyrimidin-8-yl)-l-methylpyridin-2(lH)-one] | 137 | 742 | 97 | 68 |  |
| Nc1nc(-c2ccc(F)cc2)c(-c2ccc(=O)n(CCO)c2)c2nc(Cc3c(F)cccc3F)nn12 [Example 65, 5-(5-amino-2-(2,6-difluorobenzyl)-7-(4-fluorophenyl)-[1,2,4]triazolo[1,5-c]pyrimidin-8-yl)-1-(2-hydroxyethyl)pyridin-2(1H)-one] | 0.6 | 14 | 17 | 0.2 |  |
| Cn1cc(-c2c(-c3ccc(F)cc3)nc(N)n3nc(Cc4ncc(F)cc4F)nc23)ccc1=O [Example 67, 5-(5-amino-2-((3,5-difluoropyridin-2-yl)methyl)-7-(4-fluorophenyl)-[1,2,4]triazolo[1,5-c]pyrimidin-8-yl)-1-methylpyridin-2(1H)-one] | 21 | 3200 | 13 | 22 |  |
| Cc1nc(Cc2nc3c(-c4ccc5nccn5c4)c(-c4ccc(F)cc4)nc(N)n3n2)cs1 [Example 68, 7-(4-fluorophenyl)-8-[imidazo[1,2-a]pyridin-6-yl]-2-[(2-methyl-1,3-thiazol-4-yl)methyl]-[1,2,4]triazolo[1,5-c]pyrimidin-5-amine] | 12 | 614 | 29 | 3.2 |  |
| Cn1cnc2ccc(-c3c(-c4ccc(F)cc4)nc(N)n4nc(Cc5ncccc5F)nc34)cc21 [Example 69, 7-(4-fluorophenyl)-2-((3-fluoropyridin-2-yl)methyl)-8-(1-methyl-1H-benzo[d]imidazol-6-yl)-[1,2, 4]triazolo[l,5-c]pyrimidin-5-amine] | 0.3 | 4.69 | 22 | 0.1 |  |
| Nc1nc(-c2ccc(F)cc2)c(-c2ccc3nncn3c2)c2nc(Cc3ncccc3F)nn12 [Example 72, 8-([1,2,4]triazolo[4,3-a]pyridin-6-yl)-7-(4-fluorophenyl)-2-((3-fluoropyridin-2-yl)methyl)-[1,2,4]triazolo[1,5-c]pyrimidin-5-amine] | 107 | 1050 | 9.7 | 37 |  |
| Nc1nc(-c2ccc(F)cc2)c(-c2ccc3nccn3c2)c2nc(Cc3ncccc3OC(F)F)nn12 [Example 73] | 0.4 | 4.8 |  | 0.1 | 11 |
| Nc1nc(-c2ncco2)c(-c2ccc3nccn3c2)c2nc(Cc3ncccc3OC(F)F)nn12 [Example 74, 2-((3-(difluoromethoxy)pyridin-2-yl)methyI)-8-(imidazo[1,2-a]pyridin-6-yl)-7-(oxazol-2-yl)-[1,2, 4]triazolo[1,5-c]pyrimidin-5-amine] | 1.2 | 14 |  | 0.8 | 11 |
| Nc1nc(-c2ccc(F)cc2)c(-c2ccc3nc[nH]c3c2)c2nc(Cc3ncccc3F)nn12 [Example 75, 8-(1H-benzo[d]imidazol-6-yl)-7-(4-fluorophenyl)-2-((3-fluoropyridin-2-yl)methyl)-[1,2,4]triazolo [l,5-c]pyrimidin-5-amine] | 17 | 38 | 31 | 1.7 |  |
| Cn1cc(-c2c(-c3cc(F)cc(F)c3)nc(N)n3nc(Cc4ncccc4F)nc23)ccc1=O [Example 76, 5-(5-amino-7-(3,5-difliiorophenyl)-2-((3-fluoropyridin-2-yl)methyl)-[1,2,4]triazolo[1,5-c]pyrimidin-8-yl)-1-methylpyridin-2(1H)-one] | 19 | 253 | 8.8 | 7.9 |  |
| Cn1cc(-c2c(-c3ccccc3Cl)nc(N)n3nc(Cc4ncccc4F)nc23)ccc1=O [Example 78, 5-(5-amino-7-(2-chlorophenyl)-2-((3-fluoropyridin-2-yl)methyl)-[1,2,4]triazolo[1,5-c]pyrimidin-8-yl)-l-methylpyridin-2(1H)-one] | 324 | 1260 | 1160 | 135 |  |
| CC(C)n1cc(-c2c(-c3ncco3)nc(N)n3nc(Cc4c(F)cccc4F)nc23)ccc1=O [Example 79, 5-(5-amino-2-(2,6-difluorobenzy1)-7-(oxazol-2-yl)-[1,2,4]triazolo[1,5-c]pyrimidin-8-yl)-l-isopropylpyrdin-2(1H)-one] | 0.9 | 45 | 28 | 0.7 |  |
